The target in test [1] is T1, EphrinB2-EphB1 (Homo sapiens, UniProt P54762).
T1 construct: soluble human EphB1-His, EphB2-His, and EphB4-His ectodomains; commercially available human EphrinB1-Fc (EB1), EphrinB2-Fc (EB2), and EphrinB3-Fc (EB3) ectodomain proteins; purchased
T1 sequence (P54762 18-540 limits assumed): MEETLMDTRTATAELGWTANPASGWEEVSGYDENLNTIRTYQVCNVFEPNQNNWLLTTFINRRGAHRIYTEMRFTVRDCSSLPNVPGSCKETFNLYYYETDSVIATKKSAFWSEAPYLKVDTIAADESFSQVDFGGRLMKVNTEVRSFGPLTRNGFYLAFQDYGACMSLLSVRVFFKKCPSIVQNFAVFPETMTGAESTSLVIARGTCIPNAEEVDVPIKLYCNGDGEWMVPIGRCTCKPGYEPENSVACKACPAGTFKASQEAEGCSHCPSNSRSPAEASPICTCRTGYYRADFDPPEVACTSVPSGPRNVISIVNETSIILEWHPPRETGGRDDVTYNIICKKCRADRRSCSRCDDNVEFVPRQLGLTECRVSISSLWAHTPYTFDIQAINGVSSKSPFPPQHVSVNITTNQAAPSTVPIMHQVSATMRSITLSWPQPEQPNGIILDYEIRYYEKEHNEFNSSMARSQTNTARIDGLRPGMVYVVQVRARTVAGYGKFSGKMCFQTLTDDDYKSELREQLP
The test is described as follows: Octet 80 sec association/500 sec dissociation, immobilized human EphrinB2-Fc binding to soluble human EphB1-His. To be noted: for inhibition at 3.2 µM: EphB1, 25 nM EphB1, 3.2 μM compound, A20-I as max control, 0* = less than 0, no inhibition; for EphB1 Inhibition Percent, Inhibition of Association ONLY: at 3.2 μM and 80 seconds; for EphB1 Inhibition Percent, Inhibition of Association ONLY / EphB1 Inhibition Percent, Inhibition of Association-Dissociation: immobilized human EphrinB2, 25 nM soluble human EphB1; for EphB1 Inhibition Percent, Inhibition of Association-Dissociation: at 3.2 μM and 580 seconds. In outline:
(§1)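 EphrinB2-Fc captured on AHC biosensors, then soluble His-tagged EphB ectodomain (25 nM for % inhibition runs) associated 80 s and dissociated 500 s in PBS, 0.05% Tween-20, 1% DMSO ± compound. Compounds tested at 0.1–3.2 μM with a 10 μM max standard; IC50 from AUC of full traces or at 75 s and 135 s.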
(Biolayer interferometry detects binding as a change in optical thickness at a sensor tip.)

The target of test [2] is T2, EphrinB2-EphB4 (Homo sapiens, UniProt P54760).
T2 construct: soluble human EphB1-His, EphB2-His, and EphB4-His ectodomains; commercially available human EphrinB1-Fc (EB1), EphrinB2-Fc (EB2), and EphrinB3-Fc (EB3) ectodomain proteins; purchased
T2 sequence (P54760 16-539 limits assumed): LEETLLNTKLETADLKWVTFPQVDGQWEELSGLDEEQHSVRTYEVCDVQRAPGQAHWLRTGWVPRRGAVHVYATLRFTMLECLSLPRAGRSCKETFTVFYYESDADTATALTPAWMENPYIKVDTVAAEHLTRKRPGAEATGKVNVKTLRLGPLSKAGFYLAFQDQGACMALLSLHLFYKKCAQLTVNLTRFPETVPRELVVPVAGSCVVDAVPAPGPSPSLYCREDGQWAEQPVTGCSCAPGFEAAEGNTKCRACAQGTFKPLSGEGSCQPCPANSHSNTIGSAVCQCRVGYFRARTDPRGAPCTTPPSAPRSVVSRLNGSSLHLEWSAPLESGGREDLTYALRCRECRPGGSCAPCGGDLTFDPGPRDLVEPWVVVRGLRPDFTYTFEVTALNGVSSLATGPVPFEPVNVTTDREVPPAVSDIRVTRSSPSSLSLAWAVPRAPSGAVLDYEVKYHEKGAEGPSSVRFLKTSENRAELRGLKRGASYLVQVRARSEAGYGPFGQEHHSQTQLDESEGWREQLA
In words: Octet 80 sec association/500 sec dissociation, immobilized human EphrinB2-Fc binding to soluble human EphB4-His. To be noted: for inhibition at 3.2 µM: EphB4, 25 nM EphB4, 3.2 μM compound, A20-I as max control, 0* = less than 0, no inhibition; for EphB4 Inhibition Percent, Inhibition of Association ONLY: at 3.2 μM and 80 seconds; for EphB4 Inhibition Percent, Inhibition of Association ONLY / EphB4 Inhibition Percent, Inhibition of Association-Dissociation: immobilized human EphrinB2, 25 nM soluble human EphB4; for EphB4 Inhibition Percent, Inhibition of Association-Dissociation: at 3.2 μM and 580 seconds. Put shortly:
as §1

The mark [3] stands for this setting: read-out: % Inhibition: Association + Dissociation (160 sec).
The mark [4] stands for this setting: read-out: % Inhibition: Association ONLY (80 sec).

Several values for one entry are separate records, joined by “and”; a condition that tells them apart may be missing. Equal entries are not always repeated. Where two headings read alike, the source gives them in different places. Marks after values point to notes of the source that are not given here.

The inhibition is the drop in the measured response relative to a control, in per cent.

Take `COc1ccc2[nH]cc(C(=O)N3CCOCC3)c2c1` [Compound 63, (5-methoxy-1H-indol-3-yl)(morpholino)methanone]: the inhibition at 3.2 µM in test [1] (setting [3]) came out at 0%; in test [1] (setting [4]) it was 1.19%; in test [2] (setting [3]), 0%; in test [2] (setting [4]) it was 0%. For the same molecule, the “EphB1 Inhibition Percent, Inhibition of Association ONLY” value in test [1] is reported as 1.2%.
`COc1ccc2[nH]cc(C(=O)N3CCN(c4ccccc4OC)CC3)c2c1` [Compound 64, (5-methoxy-1H-indol-3-yl)(4-(2-methoxyphenyl)piperazin-1-yl)methanone]: the inhibition at 3.2 µM in test [1] (setting [3]), in test [1] (setting [4]), in test [2] (setting [3]) and in test [2] (setting [4]) was 0% each time.
`Oc1ccc(CN2CCCCC2)c2cccnc12` [Compound 68, 5-(piperidin-1-ylmethyl)quinolin-8-ol, reference compound]: in test [1], the “EphB1 Inhibition Percent, Inhibition of Association ONLY” value is listed as 28.3% and the “EphB1 Inhibition Percent, Inhibition of Association-Dissociation” value stood at 46.8%. Moreover, in test [2], the “EphB4 Inhibition Percent, Inhibition of Association ONLY” value is recorded as 0*% and the “EphB4 Inhibition Percent, Inhibition of Association-Dissociation” value amounted to 5.8%.
With `COc1ccccc1N1CCN(Cc2cc(Br)c(O)c3ncccc23)CC1` [Compound 70, 7-bromo-5-((4-(2-methoxyphenyl)piperazin-1-yl)methyl)quinolin-8-ol], the inhibition at 3.2 µM in test [1] (setting [3]) is 58.8%; in test [1] (setting [4]), 47.2%; in test [2] (setting [3]), 36.3%; in test [2] (setting [4]) it was 15.1%.
As for `COc1ccccc1N1CCN(Cc2cc(I)c(O)c3ncccc23)CC1` [Compound 71, 7-iodo-5-((4-(2-methoxyphenyl)piperazin-1-yl)methyl)quinolin-8-ol], the inhibition at 3.2 µM in test [1] (setting [3]) turned out to be 52.3%; in test [1] (setting [4]), 39.6%; in test [2] (setting [3]) it was 35.6%; in test [2] (setting [4]), 17.5%.
For `Oc1c(CN2CCCCC2)cc(Cl)c2cccnc12` [Compound 76, 5-chloro-7-(piperidin-1-ylmethyl)quinolin-8-ol, reference compound], the “EphB1 Inhibition Percent, Inhibition of Association-Dissociation” value in test [1] was 51.5% and 43.1%. Also, in test [2], the “EphB4 Inhibition Percent, Inhibition of Association ONLY” value is 17.9% and 11.6%; the “EphB4 Inhibition Percent, Inhibition of Association-Dissociation” value was 34.5% and 29.6%.
For `COCc1cc(CN2CCN(C)CC2)c(O)c2ncccc12` [Compound 77, 5-(methoxymethyl)-7-((4-methylpiperazin-1-yl)methyl)quinolin-8-ol, reference compound], in test [1], the “EphB1 Inhibition Percent, Inhibition of Association ONLY” value was 16.9% and the “EphB1 Inhibition Percent, Inhibition of Association-Dissociation” value is listed as 35.0%. Further, in test [2], the “EphB4 Inhibition Percent, Inhibition of Association ONLY” value is on record as 0*% and the “EphB4 Inhibition Percent, Inhibition of Association-Dissociation” value came out at 2.7%.

Values taken from patent US20260374739A1, “SMALL MOLECULAR WEIGHT CHEMICAL COMPOUND TO ANTAGONIZE EPH-EPHRIN TETRAMERIZATION AND INHIBIT BIDIRECTIONAL SIGNALING” (THE BOARD OF REGENTS OF THE UNIVERSITY OF TEXAS SYSTEM, priority 2022, published 2026).
